Measured values as given in the supplement of paper PMC10307832.

Legend:
Test in all cases: relative viability (nuclei count vs DMSO), 5 days (fraction); higher = more cells survive
[1] = compound: C1COCCN1C2=NC(=NC3=C2OC4=C3C=CC=N4)C5=CC(=CC=C5)NC(=O)C6=CN=C(C=C6)N + COc1cccc2cc(-c3nc([C@H]4CC[C@H](C(=O)O)CC4)n4ncnc(N)c34)[nH]c12 [OSI-027] (partner 0.5 µM)
In short: (§1)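 Nuclei were stained with Hoechst during a one-step fixation (final 0.05% Triton X-100, 1% formaldehyde, 1 ug/ml Hoechst) carried out 5 days after dosing, then counted on 4× images. The cells, lung cancer lines in 1536-well plates, had been dosed by pin tool the day after seeding with one drug alone or a fixed anchor-drug dose plus five library-drug doses (not always all listed) in √10 steps. Relative viability is the nuclei count in treated wells divided by that in vehicle wells, and each value is the median of duplicate plates.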

[2] = compound: C1COCCN1C2=NC(=NC3=C2OC4=C3C=CC=N4)C5=CC(=CC=C5)NC(=O)C6=CN=C(C=C6)N + Nc1nc2[nH]cc(CCc3ccc(C(=O)N[C@@H](CCC(=O)O)C(=O)O)cc3)c2c(=O)[nH]1 [Pemetrexed] (partner 0.2 µM)
In short: as §1

[3] = compound: C1COCCN1C2=NC(=NC3=C2OC4=C3C=CC=N4)C5=CC(=CC=C5)NC(=O)C6=CN=C(C=C6)N + O=C(CCCCCCC(=O)Nc1ccccc1)NO [Vorinostat] (partner 1 µM)
In short: as §1

[4] = compound: CN1CCC(CNc2ccc3ncc(-c4cccc(OC(F)(F)F)c4)n3n2)CC1 [SGI-1776] + CS(=O)(=O)N1CCN(Cc2cc3nc(-c4cccc5[nH]ncc45)nc(N4CCOCC4)c3s2)CC1 [Pictilisib] (partner 1 µM)
In short: as §1

Cell Line	relative viability ([1]; first compound 0.02 µM)	relative viability ([1]; first compound 0.06325 µM)	relative viability ([1]; first compound 0.2 µM)	relative viability ([1]; first compound 0.6325 µM)	relative viability ([1]; first compound 2 µM)	relative viability ([2]; first compound 0.02 µM)	relative viability ([2]; first compound 0.06325 µM)	relative viability ([2]; first compound 0.2 µM)	relative viability ([2]; first compound 0.6325 µM)	relative viability ([2]; first compound 2 µM)	relative viability ([3]; first compound 0.02 µM)	relative viability ([3]; first compound 0.06325 µM)	relative viability ([3]; first compound 0.2 µM)	relative viability ([3]; first compound 0.6325 µM)	relative viability ([3]; first compound 2 µM)	relative viability ([4]; first compound 0.08 µM)	relative viability ([4]; first compound 0.8 µM)	relative viability ([4]; first compound 2.53 µM)	relative viability ([4]; first compound 8 µM)
NCI-H1734	0.719	0.638	0.576	0.542	0.417	0.393	0.427	0.36	0.351	0.33	0.815	0.858	0.612	0.706	0.522	0.468	0.472	0.396	0.332
NCI-H1755	0.797	0.738	0.797	0.622	0.558	0.447	0.431	0.465	0.388	0.362	0.7	0.868	0.698	0.635	0.562	0.386	0.442	0.367	0.299
NCI-H1793	0.253	0.301	0.251	0.177	0.233	0.818	0.86	0.626	0.621	0.632	0.61	0.846	0.571	0.59	0.574	0.301	0.256	0.399	0.314
NCI-H1915	0.639	0.663	0.647	0.599	0.5	0.51	0.515	0.471	0.476	0.369	0.539	0.572	0.536	0.536	0.397	0.934	0.979	0.964	0.838
NCI-H1944	0.401	0.439	0.366	0.345	0.272	0.65	0.719	0.589	0.64	0.545	0.533	0.65	0.5	0.485	0.477	0.355	0.334	0.343	0.324
NCI-H1975	0.728	0.708	0.5	0.388	0.353	0.327	0.296	0.293	0.292	0.23	0.675	0.689	0.631	0.624	0.389	0.382	0.311	0.246	0.203
NCI-H1993	0.554	0.57	0.567	0.548	0.549	0.619	0.666	0.607	0.583	0.475	0.831	0.701	0.634	0.723	0.563	0.711	0.665	0.839	0.703
NCI-H2009	0.577	0.628	0.533	0.441	0.386	1.07	1.05	1.07	1.01	0.849	0.697	0.82	0.73	0.7	0.739	0.764	0.93	0.682	0.474
